In US8871738B2, “Fused bicyclic oxazolidinone CETP inhibitor” (Merck Sharp & Dohme Corp., priority 2011, dated 2014):

Experiments:
[1] = patients treated with anacetrapib along with baseline statin therapy compared with just a statin; cited from earlier work
[2] = target: endogenous CETP from serum (Homo sapiens (Human), UniProt P11597); test: RTA assay in 95% human serum (CETP-catalyzed CE and TG transfer, endogenous CETP); format: biochemical; settings: RTA assay in 95% human serum; read-out: IC50
Sequence of endogenous CETP from serum (P11597 18-493 limits assumed): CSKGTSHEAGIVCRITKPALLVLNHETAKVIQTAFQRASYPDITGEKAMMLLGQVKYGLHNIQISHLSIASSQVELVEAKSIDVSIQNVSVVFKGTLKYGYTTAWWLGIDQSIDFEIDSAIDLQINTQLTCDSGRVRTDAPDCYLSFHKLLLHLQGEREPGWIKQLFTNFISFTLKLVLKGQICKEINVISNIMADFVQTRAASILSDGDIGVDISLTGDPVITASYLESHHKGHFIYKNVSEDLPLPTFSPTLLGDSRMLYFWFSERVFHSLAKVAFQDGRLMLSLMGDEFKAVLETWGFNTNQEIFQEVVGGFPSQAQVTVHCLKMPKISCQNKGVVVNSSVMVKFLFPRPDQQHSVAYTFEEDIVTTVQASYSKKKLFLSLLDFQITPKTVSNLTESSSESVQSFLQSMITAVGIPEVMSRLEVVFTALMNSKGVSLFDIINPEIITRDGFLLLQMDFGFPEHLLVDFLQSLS

## COc1cc(F)c(C(C)C)cc1-c1ccc(C(F)(F)F)cc1CN1C(=O)O[C@H](c2cc(C(F)(F)F)cc(C(F)(F)F)c2)[C@@H]1C [anacetrapib]
[1]
  decrease of LDL-C: 40%
  increase of HDL-C: 138%

## COc1ncc(-c2ccc(C(=O)O)cc2C)cc1-c1ncc(C(F)(F)F)cc1[C@@H]1C=C[C@H]2[C@@H](c3cc(C(F)(F)F)cc(C(F)(F)F)c3)OC(=O)N12 [Example 69, 4-(3-((1R,5S,7aS)-1-(3,5-bis(trifluoromethyl)phenyl)-3-oxo-1,3,5,7a-tetrahydropyrrolo[1,2-c]oxazol-5-yl)-2′-methoxy-5-(trifluoromethyl)-[2,3′-bipyridin]-5′-yl)-3-methylbenzoic acid]
[2]
  IC50: 456 nM

## COc1ccc(C#N)cc1-c1ccc(C(F)(F)F)cc1[C@@H]1CC[C@H]2[C@@H](c3cc(C(F)(F)F)cc(C(F)(F)F)c3)OC(=O)N12 [Example 9, 2′-{(1R,5S,7aS)-1-[3,5-bis(trifluoromethyl)phenyl]-3-oxotetrahydro-1H-pyrrolo[1,2-c][1,3]oxazol-5-yl}-6-methoxy-4′-(trifluoromethyl)biphenyl-3-carbonitrile]
[2]
  IC50: 224 nM

## O=C1O[C@H](c2cc(C(F)(F)F)cc(C(F)(F)F)c2)[C@@H]2CC[C@@H](c3cc(C(F)(F)F)ccc3-c3cc(Cl)ccc3F)N12 [Example 23, (1R,5S,7aS)-1-[3,5-bis(trifluoromethyl)phenyl]-5-[5′-chloro-2′-fluoro-4-(trifluoromethyl)biphenyl-2-yl]tetrahydro-1H-pyrrolo[1,2-c][1,3]oxazol-3-one]
[2]
  IC50: 188 nM

## O=C1O[C@H](c2cc(C(F)(F)F)cc(C(F)(F)F)c2)[C@@H]2CC[C@@H](c3cc(C(F)(F)F)ccc3-c3cc(F)ccc3F)N12 [Example 25, (1R,5S,7aS)-1-[3,5-bis(trifluoromethyl)phenyl]-5-[2′,5′-difluoro-4-(trifluoromethyl)biphenyl-2-yl]tetrahydro-1H-pyrrolo[1,2-c][1,3]oxazol-3-one]
[2]
  IC50: 104 nM

## COc1ncc(-c2ccc(C(=O)O)cc2C)cc1-c1ccc(C(F)(F)F)cc1[C@@H]1CC[C@H]2[C@@H](c3cc(C)cc(C(F)(F)F)c3)OC(=O)N12 [Example 55, 4-{6-methoxy-5-[2-{(1R,5S,7aS)-1-[3-methyl-5-(trifluoromethyl)phenyl]-3-oxotetrahydro-1H-pyrrolo[1,2-c][1,3]oxazol-5-yl}-4-(trifluoromethyl)phenyl]pyridin-3-yl}-3-methylbenzoic acid]
[2]
  IC50: 85 nM

## COc1ccc(-c2cnc(C(=O)O)cc2C)cc1-c1ccc(F)cc1[C@@H]1CC[C@H]2[C@@H](c3cc(C(F)(F)F)cc(C(F)(F)F)c3)OC(=O)N12 [Example 38, 5-(2′-{(1R,5S,7aS)-1-[3,5-bis(trifluoromethyl)phenyl}-3-oxotetrahydro-1H-pyrrolo[1,2-c][1,3]oxazol-5-yl}-4′-fluoro-6-methxoybiphenyl-3-yl)-4-methylpyridine-2-carboxylic acid]
[2]
  IC50: 1740 nM

## COc1ncc(-c2c(C)cc(C(=O)O)cc2C)cc1-c1ccc(C(F)(F)F)cc1[C@@H]1CC[C@H]2[C@@H](c3cc(C(F)(F)F)cc(C(F)(F)F)c3)OC(=O)N12 [Example 56, 4-{5-[2-{(1R,5S,7aS)-1-[3,5-bis(trifluoromethyl)phenyl]-3-oxotetrahydro-1H-pyrrolo[1,2-c][1,3]oxazol-5-yl}-4-(trifluoromethyl)phenyl]-6-methoxypyridin-3-yl}-3,5-dimethylbenzoic acid]
[2]
  IC50: 47 nM

## Cc1cocc1-c1ccc(C(F)(F)F)cc1[C@@H]1CC[C@H]2[C@@H](c3cc(C(F)(F)F)cc(C(F)(F)F)c3)OC(=O)N12 [Example 16, (1R,5S,7aS)-1-[3,5-bis(trifluoromethyl)phenyl]-5-[2-(4-methylfuran-3-yl)-5-(trifluoromethyl)phenyl]tetrahydro-1H-pyrrolo[1,2-c][1,3]oxazol-3-one]
[2]
  IC50: 343 nM
